Counter-ions that a name gives are not always drawn.

In assay [1] the test system is tracheal specimens excised from guinea pigs. Nature of the assay: Inhibitory effect on KCl-induced contraction of tracheal specimens excised from guinea pigs (Magnus tube). It counts as cell-based. To be noted: Cavia porcellus; dose required for relaxing KCl-induced contraction to 50 %; final KCl concentration: 20 mM; 37 °C; compounds other than acid addition salts used as hydrochloride; 3 specimens per group; read-out: ED₅₀ Effect on KCl-induced contraction. Here is the method:
(§1) The bronchial smooth muscle-relaxing action of the sulfonamide derivative of the present invention was evaluated by the effect on suppression of KCl-induced contraction and PGF2α-induced contraction of bronchial specimens excised from guinea pigs.
According to a method in which tracheal specimens excised from guinea pigs were used (Takagi and Ozawa, "Yakubutsugaku Jikken (Experiments in Pharmacology)", pp.100-102, 1960, published by Nanzando Japan; and Fujiwara and Shibata, "Yakurigaku Kiso Jikenho (Methods of Fundamental Experiments in Pharmacology)" pp.131-134, 1982, published by Kyourin, Japan), relaxing effect of sulfonamide derivatives of the present invention on bronchial smooth muscle was examined. Of compounds (1) to (69) shown herein, compounds other than acid addition salts were individually used in the form of a hydrochloride which was obtained by the same method as described in Example 61.
From male guinea pigs weighing 350 to 500 g (Hartley strain, Kuroda Junkei Dobutsu), tracheas were excised and each of the excised tracheal specimens was hung in 20 ml of a Magnus tube filled with Krebs-Henseleit solution under isotonic conditions and the solution temperature was kept at 37 °C. An aqueous KCl solution was dropwise added into the Magnus tube (final KCl concentration: 20 mM) to contract the tracheal specimen. After the KCl-induced contraction became stable, each of the compounds of the present invention was dissolved in distilled water or physiological saline, and the compound solution was cumulatively added into the Magnus tube. The relaxing effect of each of the compounds of the present invention on contracted tracheal specimens was evaluated and a dose-response curve was obtained.
A dose required for relaxing KCl-induced contraction to 50 %, i.e., ED₅₀ was calculated from the dose-response curve. For comparison, the same method as described above was repeated except that aminophylline was used, to thereby determine an ED₅₀. The number of tracheal specimens in each group was 3.

Assay [2] shares this test system. As to the kind of experiment: Inhibitory effect on PGF2α-induced contraction of tracheal specimens excised from guinea pigs (Magnus tube). The settings on record: Cavia porcellus, dose required for relaxing PGF2α-induced contraction to 50 %; PGF2α final concentration: 1 µm; compounds used as hydrochloride; 3 specimens per group; read-out: PGF2α-induced contraction ED50. The format is cell-based. Here is the method:
as §1
Tracheal specimens excised from male guinea pigs weighing 350 to 500 g (Hartley strain, Kuroda Junkei Dobutsu) were contracted in substantially the same manner as in Application Example 1 except that PGF2α (final concentration: 1 µm) was used instead of KCl. After the contraction of the tracheal specimens became stable, each of the compounds (hydrochloride) of the present invention was dissolved in distilled water or physiological saline, and the compound solution was cumulatively added into the Magnus tube in the same manner as in Application Example 1. The relaxing effect of each of the compounds of the present invention on the contracted specimens was evaluated and a dose-response curve was obtained. The dose required for relaxing PGF2α-induced contraction to 50 %, i.e., ED₅₀ was calculated form the dose-response curve. Of compounds 3, 4, 30, 31, 36, 38, 48, 54 and 55, which were imdividually used herein, compounds other than acid addition salts were used in the form of a hydrochloride which was obtained in the same manner as described in Example 61. For comparison, the same procedure as described above was repeated except that aminophylline, comparative compound (1) and comparative compound (2) were individually used instead of the compound of the present invention, to obtain an ED₅₀. The number of specimens in each group was 3.

Another assay relates to trachea. As to the kind of experiment: Effect on trachea in vivo: inhibition of histamine-induced tracheal contraction (modified Konzett-Rössler method). To be noted: Cavia porcellus, iv, 0.05 h; compound 1 mg/kg through the femoral vein, histamine 20 µg/kg through the femoral vein 3 minutes later; anesthetized male guinea pigs; compounds used as hydrochloride; 3 animals per group; read-out: Inhibition of tracheal con-traction. The text has this:
Further, the inhibiting action of the compound of the present invention on the histamine-induced contraction of the trachea of a guinea pig was examined by in vivo experiment. As a result, the in vivo bronchodilation action was confirmed.
According to a modified method of Konzett-Rössler method [see J. Martinez et al, Bronchial Arterial Injections, vol. 33, 295, (1961); Masaaki Takai et al, Oyo Yakuri (Applied Pharmacology), vol. 17, p.345, (1979)], effect of the compounds of the present invention on trachea in vivo was examined. Of compounds 3, 4, 30, 31, 36, 38, 48, 54 and 55, which were used herein, compounds other than acid addition salts were individually subjected to testing in the form of a hydrochloride which was obtained in the same manner as described in Example 61. Urethane was intraperitoneally administered to male guinea pigs weighing 350 to 600 g (Hartley strain, Kuroda Junkei Dobutsu) in an amount of 1.5 g/kg of body weight to anesthetize the animals. Then, cannulae were inserted into the trachea and femoral vein of each animal under urethane anesthesia and fixed. The inserted tracheal cannula was connected to a respirator for small animal (model 1683, manufactured by Harvard Co., Ltd.) and a pneumotachometer (model MHF-1200, manufactured by Nihon Kohden Corp.) through a bottle containing water, the water surface of which was adjusted to a level which is 10 cm high from the bottom, and a respiratory volume was determined.
Each of the above-mentioned compounds of the present invention was administered to guinea pigs through the femoral vein in an amount of 1 mg/kg of body weight. After 3 minutes from the administration, histamine was administered to the same guinea pigs through the femoral vein in an amount of 20 µg/kg of body weight, to thereby induce contraction of trachea and the inhibition of the histamine-induced tracheal contraction by each of the above-described compounds of the present invention was determined. For comparison, the inhibition of histamine-induced tracheal contraction by each of aminophylline, comparative compound (1) and comparative compound (2) was determined in substantially the same manner as described above. As a solvent for each compound, physiological saline was used. The number of the guinea pigs tested in each group was 3.

As to `O=S(=O)(NCCN1CCCN(Cc2ccc3c(c2)OCO3)CC1)c1ccc(Cl)c2ncccc12` [(38), 1-(8-chloro-5-quinolinesulfonylaminoethyl)-4-(3,4-methylenedioxybenzyl)homopiperazine], the EC50 came out at 26 µM in assay [1] and 74 µM in assay [2].
With `O=S(=O)(c1ccc(Cl)c2ncccc12)N1CCCNCC1` [(54), 1-(8-chloro-5-quinolinesulfonyl)homopiperazine], the EC50 in assay [1] was 38 µM; in assay [2], 65 µM. The inhibition in vivo at 1 mg/kg in the assay on trachea stood at 30%.
With `CCCCCCN(CCN)S(=O)(=O)c1cccc2cnccc12` [Comparative compound (1), N-(2-aminoethyl)-N-hexyl-5-isoquinolinesulfonamide hydrochloride, reference compound], the EC50 in assay [2] is 101 µM. Also, the inhibition in vivo at 1 mg/kg in the assay with trachea turned out to be 9%.
With `O=S(=O)(NCCN1CCCNCC1)c1ccc(Cl)c2ncccc12` [(36), 1-(8-chloro-5-quinolinesulfonylaminoethyl)homopiperazine], the figures for the EC50 in assay [1] and in assay [2] were 43 µM and 91 µM, respectively.
In the same order, the values of `O=S(=O)(NCCN1CCCN(Cc2ccc3c(c2)OCO3)CC1)c1cccc2cnccc12` [(31), 1-(5-isoquinolinesulfonylaminoethyl)-4-(3,4-methylenedioxybenzyl)homopiperazine] are 13 µM and 31 µM.
For `O=S(=O)(NCCN1CCN(Cc2ccc3c(c2)OCO3)CC1)c1cccc2cnccc12` [(30), 1-(5-isoquinolinesulfonylaminoethyl)-4-(3,4-methylenedioxybenzyl)piperazine], in that order: 16 µM and 43 µM.
In the case of `O=S(=O)(NCCNCc1ccc2c(c1)OCO2)c1cccc2cnccc12` [(3), N-[2(3,4-methylenedioxybenzylamino)ethyl]-5-isoquinolinesulfonamide], the EC50 in assay [1] turned out to be 5.2 µM; in assay [2], 23 µM. Further, the inhibition in vivo at 1 mg/kg in the assay with trachea was determined as 36%.
As to `NC1CCCN(S(=O)(=O)c2cccc3cnccc23)C1` (stereo not shown) [Comparative compound (2), 1-(5-isoquinolinesulfonyl)-3-aminopiperidine hydrochloride, reference compound], in assay [2], the EC50 worked out at 93 µM. The inhibition in vivo at 1 mg/kg in the assay on trachea worked out at 12%.
For `Cn1c(=O)c2[nH]cnc2n(C)c1=O` [Aminophylline, aminophylline, reference compound], in that order: greater than 200 µM and 7%.
Regarding `O=S(=O)(c1ccc(Cl)c2ncccc12)N1CCNCC1` [(56), 1-(8-chloro-5-quinolinesulfonyl)piperazine], the EC50 in assay [1] was found to be 49 µM.
The same measure, in the same setting: under `O=S(=O)(NCCN1CCN(Cc2ccc3c(c2)OCO3)CC1)c1cccc2c(O)nccc12` [(34), 1-(1-hydroxy-5-isoquinolinesulfonylaminoethyl)-4-(3,4-methylenedioxybenzyl)piperazine hydrochloride] stands 19 µM; under `CCOc1ccc(S(=O)(=O)NCCNCCc2ccccc2)c2cccnc12` [(26), N-(2-phenethylaminoethyl)-8-ethoxy-5-quinolinesulfonamide], 112 µM.
With `CCOc1ccc(S(=O)(=O)NCCN2CCN(CCc3ccc(OC)c(OC)c3)CC2)c2cccnc12` [(53), 1-(8-ethoxy-5-quinolinesulfonylaminoethyl)-4-(3,4-dimethoxyphenethyl)piperazine], the EC50 in assay [1] was determined as 120 µM.
The same measure, in the same setting: under `CCOc1ccc(S(=O)(=O)NCCN2CCN(Cc3ccc4c(c3)OCO4)CC2)c2cccnc12` [(49), 1-(8-ethoxy-5-quinolinesulfonylaminoethyl)-4-(3,4-methylenedioxybenzyl)piperazine] stands 46 µM.
Take `O=S(=O)(NCCNCc1cccc(Cl)c1)c1ccc(Cl)c2ncccc12` [(10), N-[2-(3-chlorobenzylamino)ethyl]-8-chloro-5-quinolinesulfonamide]: the EC50 in assay [1] worked out at 120 µM.
Same read-out and setting: under `CCOc1ccc(S(=O)(=O)NCCNCCc2ccc(Cl)cc2)c2cccnc12` [(17), N-[2-(4-chlorophenethylamino)ethyl]-8-ethoxy-5-quinolinesulfonamide] stands 71 µM.
On the same count and under the same terms, under `CCOc1ccc(S(=O)(=O)NCCN2CCN(Cc3ccc(Cl)cc3)CC2)c2cccnc12` [(51), 1-(8-ethoxy-5-quinolinesulfonylaminoethyl)-4-(4-chlorobenzyl)piperazine] stands 85 µM; under `O=S(=O)(NCCNCc1ccccc1)c1ccc(Cl)c2ncccc12` [(14)], 97 µM.
Same read-out and setting: the value for `O=S(=O)(NCCNCCc1ccc2c(c1)OCO2)c1cccc2c(O)nccc12` [(2), N-[2-(3,4-methylenedioxyphenethylamino)ethyl]-1-hydroxy-5-isoquinolinesulfonamide hydrochloride] was 15 µM; that for `O=S(=O)(NCCNCCc1ccc2c(c1)OCO2)c1cccc2cnccc12` [(1), N-[2-(3,4-methylenedioxyphenethylamino)ethyl]-5-isoquinolinesulfonamide] was 7.4 µM; that for `CCOc1ccc(S(=O)(=O)NCCNCc2ccc(OC)c(OC)c2)c2cccnc12` [(23), N-[2-(3,4-dimethoxybenzylamino)ethyl]-8-ethoxy-5-quinolinesulfonamide] was 163 µM.
Consider `CCOc1ccc(S(=O)(=O)NCCN2CCCN(Cc3ccc(Cl)cc3)CC2)c2cccnc12` [(50), 1-(8-ethoxy-5-quinolinesulfonylaminoethyl)-4-(4-chlorobenzyl)homopiperazine], for which, in assay [1], the EC50 came to 81 µM.
Same read-out and setting: under `O=S(=O)(NCCN1CCCNCC1)c1cccc2cnccc12` [(29), 1-(5-isoquinolinesulfonylaminoethyl)homopiperazine] stands 22 µM; under `CCOc1ccc(S(=O)(=O)NCCNCCc2ccc(C(F)(F)F)cc2)c2cccnc12` [(18), N-[2-(4-trifluoromethylphenethylamino)ethyl]-8-ethoxy-5-quinolinesulfonamide], 75 µM; under `O=S(=O)(NCCNCCc1ccccc1)c1ccc(Cl)c2ncccc12` [(15)], 110 µM.
The same measure, in the same setting: under `O=S(=O)(NCCNCCc1ccc(Cl)cc1)c1ccc(Cl)c2ncccc12` [(6), N-[2-(4-chlorophenethylamino)ethyl]-8-chloro-5-quinolinesulfonamide] stands 60 µM.

Values taken from patent publication EP0471841A1, “SULFONAMIDE DERIVATIVE AND PHARMACEUTICAL COMPOSITION CONTAINING THE SAME” (Asahi Kasei Kogyo Kabushiki Kaisha, priority 1990, dated 1991).
